Measurements as given in patent US7179806B2, “Δ1-pyrrolines used as pesticides” (Bayer Cropscience AG, priority 2000, dated 2007).

Experiment: log P determination by HPLC (reversed-phase C18, EEC Directive 79/831 Annex V.A8)
Type: physicochemical
Conditions: reversed-phase C18 HPLC column, pH 2.3, pH 2.3, 0.1% aqueous phosphoric acid/acetonitrile gradient, 43° C
From the text: Mobile phases for determination in the acidic range: 0.1% aqueous phosphoric acid, acetonitrile; linear gradient from 10% acetonitrile to 90% acetonitrile.

| Structure (SMILES) | chromatographic logP |
| --- | --- |
| N#Cc1ccccc1N1CCN(c2ncc(-c3ccc(C4CCC(c5c(F)cccc5F)=N4)cc3)cn2)CC1 (centres unmarked) [Example 146] | 3.78 |
| CN1CCN(c2ncc(-c3ccc(C4CCC(c5c(F)cccc5F)=N4)cc3)cn2)CC1 (centres unmarked) [Example 147] | 1.48 |
| COCCN1CCN(c2ncc(-c3ccc(C4CCC(c5c(F)cccc5F)=N4)cc3)cn2)CC1 (centres unmarked) [Example 148] | 1.49 |
| Fc1ccc(N2CCN(c3ncc(-c4ccc(C5CCC(c6c(F)cccc6F)=N5)cc4)cn3)CC2)cc1 (centres unmarked) [Example 149] | 3.95 |
| N#Cc1cccnc1N1CCN(c2ncc(-c3ccc(C4CCC(c5c(F)cccc5F)=N4)cc3)cn2)CC1 (centres unmarked) [Example 150] | 3.28 |
| Fc1cccc(F)c1C1=NC(c2ccc(-c3cnc(N4CCN(Cc5ccccc5)CC4)nc3)cc2)CC1 (centres unmarked) [Example 152] | 1.92 |
| CCCCCCNc1ncc(-c2ccc(C3CCC(c4c(F)cccc4F)=N3)cc2)cn1 (centres unmarked) [Example 153] | 3.1 |
| CCCCCNc1ncc(-c2ccc(C3CCC(c4c(F)cccc4F)=N3)cc2)cn1 (centres unmarked) [Example 154] | 2.9 |
| CCCCCN1CCN(c2ncc(-c3ccc(C4CCC(c5c(F)cccc5F)=N4)cc3)cn2)CC1 (centres unmarked) [Example 155] | 2.02 |
| Cc1cccc(N2CCN(c3ccc(-c4ccc(C5CCC(c6c(F)cccc6F)=N5)cc4)cn3)CC2)c1C (centres unmarked) [Example 157] | 3.63 |
| CCC(C)N1CCN(c2ncc(-c3ccc(C4CCC(c5c(F)cccc5F)=N4)cc3)cn2)CC1 (centres unmarked) [Example 158] | 1.65 |
| Fc1cccc(F)c1C1=NC(c2ccc(-c3cnc(N4CCN(c5ccccn5)CC4)nc3)cc2)CC1 (centres unmarked) [Example 159] | 2.06 |
| Fc1cccc(F)c1C1=NC(c2ccc(-c3cnc(NC4CC4)nc3)cc2)CC1 (centres unmarked) [Example 160] | 1.65 |
| Fc1cccc(F)c1C1=NC(c2ccc(-c3cnc(NC4CCCC4)nc3)cc2)CC1 (centres unmarked) [Example 161] | 2.58 |
| Fc1cccc(F)c1C1=NC(c2ccc(-c3cnc(NC4CCCCC4)nc3)cc2)CC1 (centres unmarked) [Example 162] | 3 |
| CCCN(CC)c1ncc(-c2ccc([C@H]3CCC(c4c(F)cccc4F)=N3)cc2)cn1 [Example 163] | 3.58 |
| Fc1cccc(F)c1C1=N[C@@H](c2ccc(-c3ccc(N4CCOCC4)nc3)cc2)CC1 [Example 164] | 1.27 |
| Fc1cccc(F)c1C1=NC(c2ccc(-c3ccc(N4CCN(c5cccc(Cl)c5)CC4)nc3)cc2)CC1 (centres unmarked) [Example 165] | 3.17 |
| Fc1cccc(F)c1C1=NC(c2ccc(-c3cnc(-n4cccc4)nc3)cc2)CC1 (centres unmarked) [Example 166] | 3.58 |
| O=C1CCCCCN1c1ncc(-c2ccc(C3CCC(c4c(F)cccc4F)=N3)cc2)cn1 (centres unmarked) [Example 167] | 1.89 |
| Fc1cccc(F)c1C1=NC(c2ccc(-c3cnc(N4CCN(CCc5ccccc5)CC4)nc3)cc2)CC1 (centres unmarked) [Example 168] | 1.84 |
| CCCc1cnc(-c2ccc(C3CCC(c4c(F)cccc4F)=N3)cc2)nc1 (centres unmarked) [Example 169] | 2.96 |
| COC(=O)C1CCN(c2ccc(-c3ccc(C4CCC(c5c(F)cccc5F)=N4)cc3)cn2)CC1 (centres unmarked) [Example 170] | 1.61 |
| Fc1ccccc1N1CCN(c2ccc(-c3ccc(C4CCC(c5c(F)cccc5F)=N4)cc3)cn2)CC1 (centres unmarked) [Example 171] | 2.51 |
| Fc1ccc(CN2CCN(c3ccc(-c4ccc(C5CCC(c6c(F)cccc6F)=N5)cc4)cn3)CC2)cc1 (centres unmarked) [Example 172] | 1.64 |

| Structure (SMILES) | chromatographic logP |
| --- | --- |
| Fc1cccc(F)c1C1=NC(c2ccc(-c3ccc(N4CCN(Cc5ccc(Cl)cc5)CC4)nc3)cc2)CC1 (centres unmarked) [Example 173] | 1.83 |
| COc1ccc(CN2CCN(c3ccc(-c4ccc(C5CCC(c6c(F)cccc6F)=N5)cc4)cn3)CC2)cc1 (centres unmarked) [Example 174] | 1.59 |
| CC(C)(C)C1CCN(c2ccc(-c3ccc(C4CCC(c5c(F)cccc5F)=N4)cc3)cn2)CC1 (centres unmarked) [Example 175] | 2.89 |
| CC(C)(C)c1ccc(CN2CCN(c3ccc(-c4ccc(C5CCC(c6c(F)cccc6F)=N5)cc4)cn3)CC2)cc1 (centres unmarked) [Example 176] | 2.23 |
| Cc1cnc(-c2ccc(C3CCC(c4c(F)cccc4F)=N3)cc2)nc1 (centres unmarked) [Example 177] | 2.02 |
| COCCN(CCC#N)c1ncc(-c2ccc(C3CCC(c4c(F)cccc4F)=N3)cc2)cn1 (centres unmarked) [Example 178] | 2.45 |
| Fc1cccc(F)c1C1=NC(c2ccc(-c3ccc(Br)nc3)cc2)CC1 (centres unmarked) [Example 179] | 2.69 |
| Fc1cccc(F)c1C1=NC(c2ccc(-c3ncc(Br)cn3)cc2)CC1 (centres unmarked) [Example 180] | 3.08 |
| CCc1cnc(-c2ccc(C3CCC(c4c(F)cccc4F)=N3)cc2)nc1 (centres unmarked) [Example 181] | 2.46 |
| CN(Cc1ccco1)c1ncc(-c2ccc(C3CCC(c4c(F)cccc4F)=N3)cc2)cn1 (centres unmarked) [Example 182] | 3.1 |
| CCN(Cc1ccco1)c1ncc(-c2ccc(C3CCC(c4c(F)cccc4F)=N3)cc2)cn1 (centres unmarked) [Example 183] | 3.59 |
| Fc1cccc(F)c1C1=NC(c2ccc(-c3cnc(NCc4ccco4)nc3)cc2)CC1 (centres unmarked) [Example 184] | 2.31 |
| CCC(C)N(Cc1ccco1)c1ncc(-c2ccc(C3CCC(c4c(F)cccc4F)=N3)cc2)cn1 (centres unmarked) [Example 185] | 4.54 |
| Cc1ccc(CN(C)c2ncc(-c3ccc(C4CCC(c5c(F)cccc5F)=N4)cc3)cn2)o1 (centres unmarked) [Example 186] | 3.4 |
| Fc1cccc(F)c1C1=NC(c2ccc(-c3cnc(N4CCC5(CC4)OCCO5)nc3)cc2)CC1 (centres unmarked) [Example 187] | 2.51 |
| Fc1cccc(F)c1C1=NC(c2ccc(-c3ncc(-c4ccc(Cl)cc4)cn3)cc2)CC1 (centres unmarked) [Example 188] | 4.12 |
| Fc1cccc(F)c1C1=NC(c2ccc(-c3ccc(N4CCN(Cc5ccccc5)CC4)nc3)cc2)CC1 (centres unmarked) [Example 189] | 1.5 |
| N#Cc1cccnc1N1CCN(c2ccc(-c3ccc(C4CCC(c5c(F)cccc5F)=N4)cc3)cn2)CC1 (centres unmarked) [Example 190] | 3.09 |
| Cc1ccc(N2CCN(c3ccc(-c4ccc(C5CCC(c6c(F)cccc6F)=N5)cc4)cn3)CC2)cc1C (centres unmarked) [Example 191] | 2.58 |
| CC(C)N1CCN(c2ccc(-c3ccc(C4CCC(c5c(F)cccc5F)=N4)cc3)cn2)CC1 (centres unmarked) [Example 192] | 1.14 |
| CCOCCN1CCN(c2ccc(-c3ccc(C4CCC(c5c(F)cccc5F)=N4)cc3)cn2)CC1 (centres unmarked) [Example 193] | 1.26 |
| COCCCN1CCN(c2ccc(-c3ccc(C4CCC(c5c(F)cccc5F)=N4)cc3)cn2)CC1 (centres unmarked) [Example 195] | 1.16 |
| Fc1cccc(F)c1C1=NC(c2ccc(-c3cnc(OC4CCC4)nc3)cc2)CC1 (centres unmarked) [Example 197] | 2.88 |
| Fc1cccc(F)c1C1=NC(c2ccc(-c3cnc(OC4CCCCC4)nc3)cc2)CC1 (centres unmarked) [Example 198] | 3.67 |
| Fc1cccc(F)c1C1=NC(c2ccc(-c3cnc(OC4CCCC4)nc3)cc2)CC1 (centres unmarked) [Example 199] | 3.21 |

| Structure (SMILES) | chromatographic logP |
| --- | --- |
| Fc1cccc(F)c1C1=NC(c2ccc(-c3cnc(OCC4CC4)nc3)cc2)CC1 (centres unmarked) [Example 200] | 2.74 |
| CCNCc1ccc(-c2ccc(C3CCC(c4c(F)cccc4F)=N3)cc2)nc1 (centres unmarked) [Example 201] | 0.9 |
| Cc1ccc(-c2ccc(C3CCC(c4c(F)cccc4F)=N3)cc2)nc1 (centres unmarked) [Example 202] | 1.24 |
| Fc1cccc(F)c1C1=NC(c2ccc(-c3ccc(N4CCN(c5cccc(C(F)(F)F)c5)CC4)nc3)cc2)CC1 (centres unmarked) [Example 203] | 3 |
| Fc1cccc(F)c1C1=NC(c2ccc(-c3ccc(N4CCN(c5ncccn5)CC4)nc3)cc2)CC1 (centres unmarked) [Example 204] | 1.5 |
| Cc1cccc(C)c1N1CCN(c2ccc(-c3ccc(C4CCC(c5c(F)cccc5F)=N4)cc3)cn2)CC1 (centres unmarked) [Example 205] | 3.76 |
| COC(CN(C)c1ncc(-c2ccc(C3CCC(c4c(F)cccc4F)=N3)cc2)cn1)OC (centres unmarked) [Example 206] | 2.32 |
| CCOC(CN(C)c1ncc(-c2ccc(C3CCC(c4c(F)cccc4F)=N3)cc2)cn1)OCC (centres unmarked) [Example 207] | 3.09 |
| CN(Cc1ccc(Cl)nc1)c1ncc(-c2ccc(C3CCC(c4c(F)cccc4F)=N3)cc2)cn1 (centres unmarked) [Example 208] | 2.89 |
| CCN(Cc1ccc(Cl)nc1)c1ncc(-c2ccc(C3CCC(c4c(F)cccc4F)=N3)cc2)cn1 (centres unmarked) [Example 209] | 3.6 |
| O/N=C/c1ccc(-c2ccc(C3CCC(c4c(F)cccc4F)=N3)cc2)nc1 (centres unmarked) [Example 210] | 1.58 |
| CC(=O)c1ccc(-c2ccc(C3CCC(c4c(F)cccc4F)=N3)cc2)nc1 (centres unmarked) [Example 211] | 2 |
| CN(c1ncc(-c2ccc(C3CCC(c4c(F)cccc4F)=N3)cc2)cn1)C1CCCCC1 (centres unmarked) [Example 212] | 4.11 |
| CC(C#N)c1ccc(-c2ccc(C3CCC(c4c(F)cccc4F)=N3)cc2)nc1 (centres unmarked) [Example 213] | 1.98 |
| O=C1CCN(c2ncc(-c3ccc(C4CCC(c5c(F)cccc5F)=N4)cc3)cn2)CC1 (centres unmarked) [Example 214] | 2 |
| CON=C1CCN(c2ncc(-c3ccc(C4CCC(c5c(F)cccc5F)=N4)cc3)cn2)CC1 (centres unmarked) [Example 215] | 2.65 |
| CCON=C1CCN(c2ncc(-c3ccc(C4CCC(c5c(F)cccc5F)=N4)cc3)cn2)CC1 (centres unmarked) [Example 216] | 3.1 |
| CC(C)ON=C1CCN(c2ncc(-c3ccc(C4CCC(c5c(F)cccc5F)=N4)cc3)cn2)CC1 (centres unmarked) [Example 217] | 3.83 |
| Fc1cccc(F)c1C1=NC(c2ccc(-c3ncc(Cl)cn3)cc2)CC1 (centres unmarked) [Example 218] | 2.87 |
| Cc1nc(-c2ccc(C3CCC(c4c(F)cccc4F)=N3)cc2)nc(C)c1Cl (centres unmarked) [Example 219] | 3.9 |
| CCOC(=O)c1cncc(-c2ccc(C3CCC(c4c(F)cccc4F)=N3)cc2)c1 (centres unmarked) [Example 220] | 2.42 |
| O=Cc1ccc(-c2ccc(C3CCC(c4c(F)cccc4F)=N3)cc2)nc1 (centres unmarked) [Example 221] | 1.95 |
| Brc1ccc(N2CCOCC2)nc1 [III-1, 4-(5-bromo-2-pyridinyl)morpholine] | 1.63 |
| FC(F)(F)COc1ccc(Br)cn1 [III-2, 5-bromo-2-(2,2,2-trifluoroethoxy)pyridine] | 3.48 |
